Source: patent US11357971B2, “Ion pump with hyperbranched polymers” (OBOE IPR AB, priority 2016, dated 2022)

What was measured:
[1] = test system: Arabidopsis thaliana seedlings (root apical meristem); assay: Root growth rate of A. thaliana seedlings during OEIP delivery; assay type: in vivo; settings: for effect on root growth rate: OEIP delivery, 60 min, compared with non-targeted seedlings
Text: The dPG-based OEIPs were used for in vivo experiments on a highly accessible model plant system suitable for live-cell imaging in the intact organism. Specifically, the apical root meristem and early elongation zone of four-day-old Arabidoposis thaliana seedlings positioned on agar gel were targeted for delivery of IAA via the OEIP. Root tips were monitored using a horizontally oriented Nikon AZ100 spectral macro-confocal laser-scanning microscope system schematically illustrated in FIG. 3a. In this arrangement, seedlings were positioned and imaged vertically.
As a negative control, benzoic acid^15 was delivered by the OEIP device, operated in the same configuration.
(§1) To this end, seeds of both genotypes and wild-type Col-0 were surface sterilized with 70% ethanol for 1 min, incubated in pool cleaner (Biltema, Sweden; one tablet per 2000 ml H2O) for 12 min, and washed four times with sterile, distilled water (dH2O). After 3 days at 4° C. in the dark, seeds were plated and grown on ½ Murashige and Skoog (MS) (Duchefa Biochemie, Haarlem, The Netherlands), 0.5 g/L 2-(N-morpholino)ethanesulfonic acid (MES, Sigma-Aldrich), 1% sucrose, 0.7% plant agar (Duchefa) growth medium plates (120×120 mm square petri-dishes; Gosselin) at pH 5.6 in vertical orientation at 23° C. with 16 h of light per day. 12 h prior to the start of the experiments, 4 days post-germination (dpg) seedlings were positioned onto fresh plates of identical MS media composition additionally supplemented with 0.01 M KCl.
Immediately prior to the experiments, the OEIPs were operated in a target solution of 10^−5 M KCl(aq), and the OEIP device tip was kept from drying excessively during sample loading and OEIP positioning. A Keithley 2612b SourceMeter (Keithley Instruments Inc, Cleveland, Ohio, USA) and custom LabVIEW (National Instruments Corporation, Austin, Tex., USA) software was use to source current and record voltage. The OEIP device was turned on immediately prior to the first imaging sequence and operated at a constant electrical current of 1 μA. For these experiments, the OEIP delivery tip was submerged in the MS media in close proximity (100-200 μm) to the root epidermal tissue (FIG. 3b,c) and was held at a fixed position in the growth MS media for the duration of each trial.

[2] = test system: DII-Venus auxin-response reporter; assay: DII-Venus fluorescent auxin-response reporter seedlings, OEIP delivery; assay type: in vivo, Arabidopsis thaliana; settings: for effect on DII-Venus fluorescence intensity: OEIP delivery to root tip, signal falls in presence of auxin
Text: The DII-Venus reporter is characterized by absence or reduction in fluorescent signal intensity in the presence of auxin or increasing auxin levels, respectively. Conversely, in DR5, the presence or gain of fluorescent signal intensity indicates presence or increase of auxin concentrations, respectively. The relative auxin abundance is visualized faster by DII-Venus than by DR5^15, because the DII-Venus signal relies on a protein degradation mechanism rather than the slower transcriptional and translational production mechanisms of DR5.
Using DII-Venus seedlings, the fluorescent signal intensity was monitored and onset of strong fluorescence reduction was observed between 30 to 60 min (FIG. 5a,b).
as §1, with “12 h prior to the start of the experiments, 4 days post-germination (dpg) seedlings were positioned onto fresh plates of identical MS media composition additionally supplemented with 0.01 M KCl.” left out
A custom reoriented macro confocal laser-scanning microscope with a vertical stage was used to acquire images (Bergman-Labora, Sweden). The macro confocal consisted of a horizontally placed AZ100 macroscope (Nikon, Japan) adapted with a specially built XYZ motorized stage (Prior Scientific fitted by Bergman-Labora) and supplied with diascopic white light and episcopic fluorescence light (Nikon). […] Excitation was at 488 nm and emission detected with a 525/50 filter. DII Venus fluorescence intensities from a single layer were normalized to initial intensity, averaged and compared (Standard deviation of the mean). […]

[3] = test system: DR5rev:GFP auxin-response reporter; assay: DR5rev:GFP fluorescent auxin-response reporter seedlings, OEIP delivery to elongation zone; assay type: in vivo, Arabidopsis thaliana; settings: root elongation zone
Text: A custom reoriented macro confocal laser-scanning microscope with a vertical stage was used to acquire images (Bergman-Labora, Sweden). The macro confocal consisted of a horizontally placed AZ100 macroscope (Nikon, Japan) adapted with a specially built XYZ motorized stage (Prior Scientific fitted by Bergman-Labora) and supplied with diascopic white light and episcopic fluorescence light (Nikon). A climate enclosure with passive humidification was designed to surround the stage area to keep plants in a humid, dark environment. The AZ100 macroscope was connected to a C2+ confocal laser scanning system (Nikon) equipped with lasers for 405 nm, 457/488/514 nm and 561 nm excitation and a transmitted light detector. […] Excitation was at 488 nm and emission detected with a 525/50 filter. DII Venus fluorescence intensities from a single layer were normalized to initial intensity, averaged and compared (Standard deviation of the mean). […]

[4] = reported in literature (ref. 13); cited from earlier work

Structure (SMILES) | root growth rate after 60 min of delivery ([1]; OEIP delivery at 1 μA, average of 5 trials, after 60 min) [μm min^−1] | root growth rate before the decrease ([1]; OEIP delivery at 1 μA, average of 5 trials, initial rate) [μm min^−1] | effect on root growth rate [1] | onset of strong fluorescence reduction ([2]; DII-Venus seedlings, OEIP delivery) [min] | effect on DII-Venus fluorescence intensity [2] | effect on DR5 reporter fluorescent intensity [3] | onset of fluorescence in plant tissues [3] [h] | activity in previous bioassays [4]
O=C(O)Cc1c[nH]c2ccccc12 [IAA, indole-3-acetic acid] | 2.4±0.7 | 4.7±1.0 | rapid decrease in growth rate | 30 to 60 | strong and significant decrease in fluorescence | signal continued to increase between 2 and 3 hours | 1 | –
O=C(O)c1ccccc1 [benzoic acid] | – | – | maintained their growth rates | – | preserved their fluorescence | did not display alterations in fluorescent intensity | – | –
O=C(O)CC1C(=O)Nc2ccccc21 (centres unmarked) [oxIAA, 2-oxindole-3-acetic acid] | – | – | – | – | – | – | – | inactive
